30 compounds from US12600709B2, “Nonpeptide somatostatin type 5 receptor agonists and uses thereof” (Crinetics Pharmaceuticals, Inc., priority 2019, dated 2026) can be followed below.

The target in the assay is T1, human somatostatin receptor subtype 5 (Homo sapiens, UniProt P35346).
T1 construct: expressed in transfected cells
Kind of assay: cAMP assay for SST5R (inhibition of cAMP in CHO-K1 cells). It is filed as cell-based. The settings on record: Table A; inhibition of cAMP via human SST5 receptor; read-out: SST5 potency. The procedure, abridged:
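CHO-K1 cells stably expressing human SSTR5 were treated 20 min at 37 °C with compounds plus 1.6 μM NKH477 in HBSS, 0.5 mM HEPES pH 7.4, 0.1% BSA, 0.2 mM IBMX. Lysate cAMP measured by HTRF against a standard curve; EC50 from cAMP-versus-concentration plots.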
(In general: cAMP levels reflect the balance of adenylyl cyclase and phosphodiesterase activity.)

T1 sequence (P35346 whole entry): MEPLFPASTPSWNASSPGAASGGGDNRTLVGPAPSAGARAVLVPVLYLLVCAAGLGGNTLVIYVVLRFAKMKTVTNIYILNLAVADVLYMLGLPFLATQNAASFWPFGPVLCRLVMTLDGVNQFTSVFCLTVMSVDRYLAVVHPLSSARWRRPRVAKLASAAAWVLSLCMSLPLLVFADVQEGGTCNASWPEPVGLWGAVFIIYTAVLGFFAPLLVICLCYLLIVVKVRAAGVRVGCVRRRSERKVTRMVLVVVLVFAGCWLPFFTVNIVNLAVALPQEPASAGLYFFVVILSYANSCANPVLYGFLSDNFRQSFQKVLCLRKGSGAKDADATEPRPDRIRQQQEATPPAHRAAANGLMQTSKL

Consider `Cc1cccc2[nH]c(-c3cncc(C(=O)NC(C)C4CC4)c3N3CC[C@](C)(N)C3)nc12` (stereo partly drawn) [2-14, 4-[(3S)-3-amino-3-methylpyrrolidin-1-yl]-N-(1-cyclopropylethyl)-5-(4-methyl-1H-1,3-benzodiazol-2-yl)pyridine-3-carboxamide], for which the EC50 is less than 10 nM. Then `Cc1cccc2[nH]c(-c3cncc(C(=O)N(C)C4CCCC4)c3N3CC[C@](C)(N)C3)nc12` [2-16, 4-[(3S)-3-amino-3-methylpyrrolidin-1-yl]-N-cyclopentyl-N-methyl-5-(4-methyl-1H-1,3-benzodiazol-2-yl)pyridine-3-carboxamide], with less than 10 nM.

Take `Cc1cccc2[nH]c(-c3cncc(C(=O)NC4CCC(F)(F)CC4)c3N3CC[C@](C)(N)C3)nc12` [2-17, 4-[(3S)-3-amino-3-methylpyrrolidin-1-yl]-N-(4,4-difluorocyclohexyl)-5-(4-methyl-1H-1,3-benzodiazol-2-yl)pyridine-3-carboxamide]: the EC50 was 10 to 100 nM. Then `Cc1cccc2[nH]c(-c3cncc(C(=O)N[C@H](C)C(F)(F)F)c3N3CC[C@](C)(N)C3)nc12` [2-18, 4-[(3S)-3-amino-3-methylpyrrolidin-1-yl]-5-(4-methyl-1H-1,3-benzodiazol-2-yl)-N-[(2R)-1,1,1-trifluoropropan-2-yl]pyridine-3-carboxamide], with less than 10 nM; and `Cc1cccc2[nH]c(-c3cncc(C(=O)N4CCC(C)(C)C4)c3N3CC[C@](C)(N)C3)nc12` [2-19, (3S)-1-[3-(3,3-dimethylpyrrolidine-1-carbonyl)-5-(4-methyl-1H-1,3-benzodiazol-2-yl)pyridin-4-yl]-3-methylpyrrolidin-3-amine], with less than 10 nM; and `Cc1cccc2[nH]c(-c3cncc(C(=O)N4CCCC4(C)C)c3N3CC[C@](C)(N)C3)nc12` [2-20, (3S)-1-[3-(2,2-dimethylpyrrolidine-1-carbonyl)-5-(4-methyl-1H-1,3-benzodiazol-2-yl)pyridin-4-yl]-3-methylpyrrolidin-3-amine], with less than 10 nM.

Take `Cc1cccc2[nH]c(-c3cncc(C(=O)N4CC(C)(C)C4)c3N3CC[C@](C)(N)C3)nc12` [2-21, (3S)-1-[3-(3,3-dimethylazetidine-1-carbonyl)-5-(4-methyl-1H-1,3-benzodiazol-2-yl)pyridin-4-yl]-3-methylpyrrolidin-3-amine]: the EC50 lay in the range of 10 to 100 nM. As for `Cc1cccc2[nH]c(-c3cncc(C(=O)N(C)C4CC4)c3N3CC[C@](C)(N)C3)nc12` [2-22, 4-[(3S)-3-amino-3-methylpyrrolidin-1-yl]-N-cyclopropyl-N-methyl-5-(4-methyl-1H-1,3-benzodiazol-2-yl)pyridine-3-carboxamide], the EC50 lay in the range of 10 to 100 nM. Turning to `Cc1cccc2[nH]c(-c3cncc(C(=O)N(C)CC4CC4)c3N3CC[C@](C)(N)C3)nc12` [2-23, 4-[(3S)-3-amino-3-methylpyrrolidin-1-yl]-N-(cyclopropylmethyl)-N-methyl-5-(4-methyl-1H-1,3-benzodiazol-2-yl)pyridine-3-carboxamide], the EC50 lay in the range of 10 to 100 nM. For `C[C@H](NC(=O)c1cncc(-c2nc3c(F)cccc3[nH]2)c1N1CC[C@](C)(N)C1)C(F)(F)F` [2-24, 4-[(3S)-3-amino-3-methylpyrrolidin-1-yl]-5-(4-fluoro-1H-1,3-benzodiazol-2-yl)-N-[(2S)-1,1,1-trifluoropropan-2-yl]pyridine-3-carboxamide], the EC50 was less than 10 nM. With `Cc1cccc2[nH]c(-c3cncc(C(=O)N4CCC(F)(F)C4)c3N3CC[C@](C)(N)C3)nc12` [2-25, (3S)-1-[3-(3,3-difluoropyrrolidine-1-carbonyl)-5-(4-methyl-1H-1,3-benzodiazol-2-yl)pyridin-4-yl]-3-methylpyrrolidin-3-amine], the EC50 was in the range of 10 to 100 nM.

With `Cc1cccc2[nH]c(-c3cncc(C(=O)N4CCC(C(C)(C)C)C4)c3N3CC[C@](C)(N)C3)nc12` (stereo partly drawn) [2-27, (3S)-1-[3-(3-tert-butylpyrrolidine-1-carbonyl)-5-(4-methyl-1H-1,3-benzodiazol-2-yl)pyridin-4-yl]-3-methylpyrrolidin-3-amine], the EC50 was less than 10 nM.

Turning to `Cc1cccc2[nH]c(-c3cncc(C(=O)N4C[C@@H](C)O[C@@H](C)C4)c3N3CC[C@](C)(N)C3)nc12` [2-28, (3S)-1-{3-[(2R,6S)-2,6-dimethylmorpholine-4-carbonyl]-5-(4-methyl-1H-1,3-benzodiazol-2-yl)pyridin-4-yl}-3-methylpyrrolidin-3-amine], the EC50 was 10 to 100 nM. For `Cc1cccc2[nH]c(-c3cncc(C(=O)NCC4CCC4)c3N3CC[C@](C)(N)C3)nc12` [2-31, 4-[(3S)-3-amino-3-methylpyrrolidin-1-yl]-N-(cyclobutylmethyl)-5-(4-methyl-1H-1,3-benzodiazol-2-yl)pyridine-3-carboxamide], the EC50 is less than 10 nM. Then `Cc1cccc2[nH]c(-c3cncc(C(=O)NC(C)CC(F)(F)F)c3N3CC[C@](C)(N)C3)nc12` (stereo partly drawn) [2-32, 4-[(3S)-3-amino-3-methylpyrrolidin-1-yl]-5-(4-methyl-1H-1,3-benzodiazol-2-yl)-N-(4,4,4-trifluorobutan-2-yl)pyridine-3-carboxamide], with less than 10 nM; and `Cc1cccc2[nH]c(-c3cncc(C(=O)NC45CCC(CC4)C5)c3N3CC[C@](C)(N)C3)nc12` [2-33, 4-[(3S)-3-amino-3-methylpyrrolidin-1-yl]-N-{bicyclo[2.2.1]heptan-1-yl}-5-(4-methyl-1H-1,3-benzodiazol-2-yl)pyridine-3-carboxamide], with less than 10 nM. Then `Cc1cccc2[nH]c(-c3cncc(C(=O)N4CCc5ccccc54)c3N3CC[C@](C)(N)C3)nc12` [2-34, (3S)-1-[3-(2,3-dihydro-1H-indole-1-carbonyl)-5-(4-methyl-1H-1,3-benzodiazol-2-yl)pyridin-4-yl]-3-methylpyrrolidin-3-amine], with 10 to 100 nM; and `Cc1cccc2[nH]c(-c3cncc(C(=O)N4CCC5(CC5)C4)c3N3CC[C@](C)(N)C3)nc12` [2-39, (3S)-1-(3-{5-azaspiro[2.4]heptane-5-carbonyl}-5-(4-methyl-1H-1,3-benzodiazol-2-yl)pyridin-4-yl)-3-methylpyrrolidin-3-amine], with 10 to 100 nM. Take `CC[C@H](NC(=O)c1cncc(-c2nc3c(C)cccc3[nH]2)c1N1CC[C@](C)(N)C1)C(F)(F)F` [2-40, 4-[(3S)-3-amino-3-methylpyrrolidin-1-yl]-5-(4-methyl-1H-1,3-benzodiazol-2-yl)-N-[(2S)-1,1,1-trifluorobutan-2-yl]pyridine-3-carboxamide]: the EC50 is less than 10 nM. Take `Cc1cccc2[nH]c(-c3cncc(C(=O)N4CCC(C(F)(F)F)C4)c3N3CC[C@](C)(N)C3)nc12` (stereo partly drawn) [2-44, (3S)-3-methyl-1-[3-(4-methyl-1H-1,3-benzodiazol-2-yl)-5-[3-(trifluoromethyl)pyrrolidine-1-carbonyl]pyridin-4-yl]pyrrolidin-3-amine]: the EC50 lay in the range of 10 to 100 nM.

Consider `C[C@H](NC(=O)c1ccnc(-c2cc(F)cc(F)c2)c1N1CC[C@](C)(N)C1)C1CC1` [3-1, 3-[(3S)-3-amino-3-methylpyrrolidin-1-yl]-N-[(1S)-1-cyclopropylethyl]-2-(3,5-difluorophenyl)pyridine-4-carboxamide], for which the EC50 fell in the range of 10 to 100 nM. `C[C@H](NC(=O)c1ccnc(-c2cc(F)cc(F)c2)c1N1CC[C@](C)(N)C1)c1ccccc1` [3-3, 3-[(3S)-3-amino-3-methylpyrrolidin-1-yl]-2-(3,5-difluorophenyl)-N-[(1S)-1-phenylethyl]pyridine-4-carboxamide]: the EC50 is 100 to 1000 nM. As to `C[C@]1(N)CCN(c2c(C(=O)NC(C3CC3)C3CC3)ccnc2-c2cc(F)cc(F)c2)C1` [3-4, 3-[(3S)-3-amino-3-methylpyrrolidin-1-yl]-N-(dicyclopropylmethyl)-2-(3,5-difluorophenyl)pyridine-4-carboxamide], the EC50 is less than 10 nM. As to `C[C@]1(N)CCN(c2c(C(=O)NC34CCC(CC3)C4)ccnc2-c2cc(F)cc(F)c2)C1` [3-5, 3-[(3S)-3-amino-3-methylpyrrolidin-1-yl]-N-{bicyclo[2.2.1]heptan-1-yl}-2-(3,5-difluorophenyl)pyridine-4-carboxamide], the EC50 was 10 to 100 nM. `C[C@]1(N)CCN(c2c(C(=O)NC3CCCC3)ccnc2-c2cc(F)cc(F)c2)C1` [3-8, 3-[(3S)-3-amino-3-methylpyrrolidin-1-yl]-N-cyclopentyl-2-(3,5-difluorophenyl)pyridine-4-carboxamide]: the EC50 was in the range of 10 to 100 nM. In the case of `Cc1cnc(C(=O)N[C@@H](C)C2CC2)c(N2CC[C@](C)(N)C2)c1-c1cc(F)cc(F)c1` [4-2, 3-[(3S)-3-amino-3-methylpyrrolidin-1-yl]-N-[(1S)-1-cyclopropylethyl]-4-(3,5-difluorophenyl)-5-methylpyridine-2-carboxamide], the EC50 lay in the range of 10 to 100 nM. Then `C[C@H](NC(=O)c1ncc(C#N)c(-c2cc(F)cc(F)c2)c1N1CC[C@](C)(N)C1)C1CC1` [4-3, 3-[(3S)-3-amino-3-methylpyrrolidin-1-yl]-5-cyano-N-[(1S)-1-cyclopropylethyl]-4-(3,5-difluorophenyl)pyridine-2-carboxamide], with less than 10 nM; and `COC(=O)c1cnc(C(=O)N[C@@H](C)C2CC2)c(N2CC[C@](C)(N)C2)c1-c1cc(F)cc(F)c1` [4-4, methyl 5-[(3S)-3-amino-3-methylpyrrolidin-1-yl]-6-{[(1S)-1-cyclopropylethyl]carbamoyl}-4-(3,5-difluorophenyl)pyridine-3-carboxylate], with 10 to 100 nM; and `C[C@H](NC(=O)c1ncc(C(N)=O)c(-c2cc(F)cc(F)c2)c1N1CC[C@](C)(N)C1)C1CC1` [4-5, 3-[(3S)-3-amino-3-methylpyrrolidin-1-yl]-N2-[(1S)-1-cyclopropylethyl]-4-(3,5-difluorophenyl)pyridine-2,5-dicarboxamide], with more than 1000 nM. Then “N-(adamantan-1-yl)-3-[(3S)-3-amino-3-methylpyrrolidin-1-yl]-2-(3,5-difluorophenyl)pyridine-4-carboxamide [3-7]”, with 10 to 100 nM.
